A short description of this data set: gradient 5% acetonitrile 3 min, to 50% in 2 min, to 85% in 15 min, held 3 min, 100 µL/min. The settings on record: column: Zorbax Extend-C18 2.1 x 50 mm; eluents: water / acetonitrile, 0.1% formic acid. In outline:
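Each retention time is based on an adduct peak selected computationally and verified by manual inspection. Measurements used HPLC–quadrupole time-of-flight mass spectrometry in positive and negative ionization mode on mixtures of ~100 pure standards. Chromatography ran on a Zorbax Extend-C18 column (2.1 × 50 mm, 1.8 μm) at 100 μL/min with water and acetonitrile, each containing 0.1% formic acid, and dead and dwell volumes of 40 μL and 900 μL.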
In turn, `Cc1cc(N2C=C(C(=O)N3CCCC3)S(=O)(=O)c3ccc(F)cc32)ccc1F` returned an RP-LC retention time of 854 s.
For `CCCCNC(=O)C1CCCN(c2nnc(C)c3c(C)n(-c4ccccc4)nc23)C1` (stereo not given), the RP-LC retention time was found to be 686 s.
In turn, `COc1ccc(C(O)CN2CCN(c3ccccc3)CC2)cc1` (stereo not given) had an RP-LC retention time of 630 s.
Turning to `Cc1ccc(Nc2c(-c3c(F)cccc3Cl)nc3ccc(C)cn23)cc1`, the RP-LC retention time turned out to be 773 s.
`O=S(=O)(c1ccccc1F)N1CC(n2cnnc2-c2ccccc2)C1` came in with an RP-LC retention time of 671 s.
`COc1ccc(F)cc1S(=O)(=O)N1CCN(c2c(C)nn(-c3ccccc3)c2C)CC1`: the RP-LC retention time was 965 s.
In turn, `CCCc1nc2cccnc2n1C1CCN(C(=O)COc2ccccc2)C1` (stereo not given) had an RP-LC retention time of 630 s.
`CCNc1nc(N2CCN(C3CCCCC3)CC2)nc2c1cnn2C` had an RP-LC retention time of 614 s.
As for `CCCN1C(=O)c2cc(S(=O)(=O)NCc3ccccc3)ccc2Oc2cccnc21`, the RP-LC retention time was 1050 s.
Take `O=C(CCc1nnn2c1CN(C(=O)Cc1c[nH]c3ccccc13)CC2)N1CCCC1`: the RP-LC retention time worked out at 641 s.
The value for `COc1cccc(-c2cc3n(n2)CCCN(C(=O)c2ccsc2)C3)c1` was 714 s.
Regarding `Cc1cc(C)cc(C(=O)N2CCc3nc[nH]c3C2)c1`, the RP-LC retention time was 584 s.
For the molecule `Cc1c(C(=O)N2CCSCC2)cnn1-c1ccc(-c2nc(C3CC3)no2)cn1`, the RP-LC retention time is 960 s.
The value for `Cc1ccc(NC(=O)CN2C(=O)CSC(C)C2=O)cc1Cl` (stereo not given) was 819 s; that for `COc1ccc(CNC(=O)C2CCN(S(C)(=O)=O)c3cc(Cl)ccc3O2)cc1` (stereo not given) was 877 s; that for `CC(C)(C)c1ccc(-c2cc(C(=O)O)c3ccc(Br)cc3n2)cc1` was 1400 s.
In turn, `CC(C)c1ccc(CNC(=O)CN2CCc3ccccc3C2C(=O)N2CCCC2)cc1` (stereo not given) gave an RP-LC retention time of 908 s.
With `COc1cccc(CN2CCc3nn(Cc4ccccc4)c(=O)n3CC2)n1`, the RP-LC retention time was 580 s.
With `O=C1c2ccccc2C(=O)c2sc(Nc3ccc(Cl)c(Cl)c3)nc21`, the RP-LC retention time came out at 1140 s.
With `O=C(Cn1nc2c(N3CCOCC3)nccn2c1=O)Nc1ccc(Br)cc1F`, the RP-LC retention time came to 779 s.
`Cc1ccc(Cn2nnc(C(=O)NCc3ccco3)c2-n2cccc2)cc1`: the RP-LC retention time was 1010 s.
`CCOC(=O)c1c(C)[nH]c(C(=O)N2CCC(CC(=O)NCc3ccc(CC)cc3)CC2)c1C` registered an RP-LC retention time of 869 s.
The molecule `CCn1cc(-c2ccc(Cl)cc2)cc1C(=O)NCCCN(C)C` had an RP-LC retention time of 694 s.
As for `CCn1nc(C)n2cc(S(=O)(=O)NCc3cc(F)cc(F)c3)cc2c1=O`, the RP-LC retention time came out at 886 s.
In turn, `Cc1ccc2[nH]c(=O)c(CCC(=O)NCc3cccnc3)cc2c1` had an RP-LC retention time of 584 s.
The value for `CCN(CC)C(=O)c1ccc2c(c1)N(CC(=O)N(C)Cc1ccccc1)C(=O)CS2` was 787 s; that for `CCCCNC(=O)CCCN1C(=O)CCn2nc(-c3cn(C)c4ccccc34)cc21` was 781 s; that for `CCC1CN1P(=O)(Oc1ccc(Cl)cc1)N1CC1CC` (stereo not given) was 980 s.
Molecule `Cc1ccc(Cn2c(=O)c3nn(C)cc3n3c(=O)n(Cc4ccc(F)cc4)nc23)cc1` displayed an RP-LC retention time of 947 s.
With `O=C(CSc1nnc(-c2cccc(Cl)c2)o1)Nc1ccc(C(F)(F)F)cc1`, the RP-LC retention time amounted to 1050 s.
For `CCS(=O)(=O)N1CCCc2cc(C(=O)NCc3ccco3)ccc21`, the RP-LC retention time is 945 s.
The value for `Cc1ccccc1Nc1c(-c2ccc(Cl)cc2)nc2ccc(Cl)cn12` was 1050 s; that for `O=C(NCCc1ccc(N2CCCC2)cc1)C(=O)Nc1ccc2c(c1)OCCO2` was 844 s; that for `COC(=O)c1ccc(C(=O)NCCCC(=O)Nc2cccc3cccnc23)cc1` was 731 s.
`Nc1cc(C2CCN(C(=O)Nc3ccccc3C(F)(F)F)CC2)no1` showed an RP-LC retention time of 698 s.
On to `CCOC(=O)C1CCCN(S(=O)(=O)c2cccc3cccnc23)C1` (stereo not given), for which the RP-LC retention time came to 798 s.
`COc1ccc(Cc2nc(-c3ccc4nnc(C)n4c3)no2)cc1Cl`: the RP-LC retention time is 822 s.
Take `CC(NC(=O)c1ccco1)c1nc2ccccc2n1CC(=O)N(C(C)C)C(C)C` (stereo not given): the RP-LC retention time came out at 691 s.
`CC1=C(c2ccc(F)cc2)S(=O)(=O)N=C1N1CCCN(C(=O)c2cccc(C)c2)CC1`: the RP-LC retention time was found to be 859 s.
Molecule `CCn1cnc(S(=O)(=O)N2CCCC(C(=O)N3CCN(c4ccccc4)CC3)C2)c1` (stereo not given) yielded an RP-LC retention time of 747 s.
The molecule `Cc1ccc2ncn(C3CCN(C(=O)Nc4ccccc4C)CC3)c(=O)c2c1` displayed an RP-LC retention time of 754 s.
For the molecule `COc1ccc(F)cc1S(=O)(=O)N1CCCC(Cn2c(C3CC3)nc3cccnc32)C1` (stereo not given), the RP-LC retention time amounted to 742 s.
`C[C@H](NC(=O)C1CCCN(S(=O)(=O)c2ccc(F)cc2)C1)C(=O)O` (stereo not given in full) had an RP-LC retention time of 669 s.
`CCc1ccc(C(=O)Nc2cc3c(cc2S(=O)(=O)C(C)C)n(C)c(=O)n3C)cc1` returned an RP-LC retention time of 747 s.
As to `C=CCN1C(=O)COc2ccc(-c3csc(NC(=O)/C=C/c4ccc(OCC)c(OC)c4)n3)cc21`, the RP-LC retention time was found to be 1050 s.
In the case of `CC(=O)N1CCc2cc(N3CC(C(=O)Nc4ccccc4C)CC3=O)ccc21` (stereo not given), the RP-LC retention time was 692 s.
In turn, `CCCn1cc(S(=O)(=O)Nc2cccc(C)c2C)c2cccnc21` came in with an RP-LC retention time of 943 s.
On to `Clc1cccc(-c2noc(Cc3nnc(-c4ccccc4)o3)n2)c1`, for which the RP-LC retention time amounted to 1070 s.
As for `CCN(CC)S(=O)(=O)c1ccc2c(c1)CC(C(=O)N1CCC(C)CC1)N2C(C)=O` (stereo not given), the RP-LC retention time was 849 s.
As for `O=C(c1ccoc1)N1CCCn2cc(-c3ccccc3F)nc21`, the RP-LC retention time was determined as 649 s.
In the case of `CC(C)N1C(=O)C(C)(C(=O)NCc2ccccc2Cl)Oc2cccnc21` (stereo not given), the RP-LC retention time stood at 974 s.
Regarding `Cc1ccc(NC(=O)N2CCCC2c2nncn2C2CCCC2)cc1F` (stereo not given), the RP-LC retention time turned out to be 728 s.
The figure for `COc1cccc(-c2nc(C3CCN(S(=O)(=O)c4ccc5c(c4)CCC5)CC3)no2)c1` is 1220 s.
The value for `Cc1ccccc1NC(=O)N1CCCN(c2ccc(=O)n(-c3ccccc3)n2)CC1` was 720 s; that for `Cc1nc2ccccc2c(=O)n1Cc1noc(-c2cccc(Cl)c2)n1` was 913 s; that for `COc1ccc2c(c1)c(CN1CCC(C(=O)NCCN3CCCCC3)CC1)cn2C` was 562 s.
For the molecule `CCNC(=O)C1CCCN(c2nc3ncn(CC(=O)Nc4cccc(Cl)c4)c(=O)c3s2)C1` (stereo not given), the RP-LC retention time turned out to be 701 s.
The figure for `O=S(=O)(c1cc(-c2noc(C3CCCC3)n2)cs1)N1CCCC1` is 1110 s.
Molecule `CCCN1CCc2cc(O)cc3c2[C@H]1Cc1ccc(O)c(O)c1-3` showed an RP-LC retention time of 646 s.
The value for `Cc1nc2cc(-c3noc(-c4ccco4)n3)ccc2n(C2CCCC2)c1=O` was 927 s; that for `Cc1sc(-c2nnc(C3CC3)o2)cc1NC(=O)C1CCC1` was 856 s; that for `Cc1ccc(NC(=O)C2CCCN(c3nccc(C)n3)C2)c(Br)c1` (stereo not given) was 889 s.
The molecule `CCc1noc(NC(C)=O)c1-c1ccc(C)c(S(=O)(=O)Nc2cc(OC)c(OC)c(OC)c2)c1` had an RP-LC retention time of 761 s.
The figure for `Cc1cc(C)nc(N2CCN(c3cc(C)nc4c(-c5ccc(F)cc5)cnn34)CC2)n1` is 1190 s; for `Cc1nn(C(C)C(=O)NCCCN(C)Cc2ccccc2)c(=O)c2c(C)n(-c3ccccc3)nc12` (stereo not given) it is 687 s; for `O=C([C@@H]1C[C@H](F)CN1S(=O)(=O)c1cccc(F)c1)N1CCOCC1` it is 676 s.
The molecule `O=C(N[C@H](Cc1ccccc1)C(=O)NCc1cscn1)c1cccc(Cl)c1` gave an RP-LC retention time of 806 s.
The value for `CCOC(=O)c1sc(NC(=O)c2ccccc2F)nc1-c1ccccc1` was 1100 s.
As for `COCCc1noc(C2Cc3ccccc3N2C(=O)Nc2cc(C)cc(C)c2)n1` (stereo not given), the RP-LC retention time was 968 s.
The figure for `Cc1c(C(=O)NCC2CC2)cnn1-c1cc(-c2nc(C(C)C)no2)ccn1` is 1020 s; for `CN(CC1(C)CCOCC1)C(=O)COc1ccc(Cl)cc1` it is 816 s.
Molecule `Cn1cnc(S(=O)(=O)N2CC[C@@H]3COCCN(Cc4ccccc4)[C@@H]3C2)c1` registered an RP-LC retention time of 586 s.
`Cc1cc(C)n(CC(=O)N2CCC[C@H]2c2nc(-c3ccccc3)n[nH]2)n1` returned an RP-LC retention time of 641 s.
The figure for `Cc1oc2cc3oc(=O)c(CC(=O)N4CCC(C(N)=O)CC4)c(C)c3cc2c1C` is 697 s.
The figure for `COCCCNC(=O)c1cc2n(n1)CCCN(Cc1ccc(F)cc1)C2=O` is 697 s; for `CC(=O)N1CCN(c2nc3c(s2)CC(C(=O)NCc2cc(C)ccc2C)CC3)CC1` (stereo not given) it is 576 s; for `CC(=O)N1CCN(C(=O)c2cccn2CC(=O)N2CCc3ccccc32)CC1` it is 627 s.
The molecule `CCNC(=O)c1cc2cc(Br)ccc2[nH]1` came in with an RP-LC retention time of 828 s.
Consider `Cc1cc(C)n(-c2ccc(C(=O)NC3CCC(C)CC3)cn2)n1` (stereo not given), for which the RP-LC retention time is 1010 s.
For `Cc1nn(-c2ccccc2)cc1C(=O)N1CCC(CC(=O)NC2CC2)CC1`, the RP-LC retention time was 667 s.

The values are drawn from the METLIN SMRT retention time set (Domingo-Almenara et al. 2019).
